Laboratory results published in the supplement of paper PMC10307832.

Legend:
Experiment in all cases: relative viability (nuclei count vs DMSO), 5 days (fraction); higher = more cells survive
TPCA-1 + Vorinostat = compound: C1=CC(=CC=C1C2=CC(=C(S2)NC(=O)N)C(=O)N)F [TPCA-1] + O=C(CCCCCCC(=O)Nc1ccccc1)NO [Vorinostat] (partner 1 µM)
Summary of the method: (§1)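 After 5 days of treatment, lung cancer cells in 1536-well plates were fixed and stained in a single step (final 0.05% Triton X-100, 1% formaldehyde, 1 ug/ml Hoechst) and their nuclei counted on 4× images. Treatment had been applied by pin tool the day after seeding as one drug alone or as a fixed anchor-drug dose with five library-drug doses (not always all listed) in √10 steps. Relative viability is the nuclei count of treated wells divided by that of vehicle wells, and values are medians of duplicate plates.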

TPCA-1 + Decitabine = compound: C1=CC(=CC=C1C2=CC(=C(S2)NC(=O)N)C(=O)N)F [TPCA-1] + Nc1ncn([C@H]2C[C@H](O)[C@@H](CO)O2)c(=O)n1 [Decitabine] (partner 2 µM)
Summary of the method: as §1

TPCA-1 + Crizotinib = compound: C1=CC(=CC=C1C2=CC(=C(S2)NC(=O)N)C(=O)N)F [TPCA-1] + C[C@@H](Oc1cc(-c2cnn(C3CCNCC3)c2)cnc1N)c1c(Cl)ccc(F)c1Cl [Crizotinib] (partner 1 µM)
Summary of the method: as §1

[1] = compound: C[C@]12O[C@H](C[C@]1(O)CO)n1c3ccccc3c3c4c(c5c6ccccc6n2c5c31)CNC4=O [Lestaurtinib] + O=C(CCCCCCC(=O)Nc1ccccc1)NO [Vorinostat] (partner 1 µM)
Summary of the method: as §1

Cell Line | relative viability (TPCA-1 + Vorinostat; first compound 0.04 µM) | relative viability (TPCA-1 + Vorinostat; first compound 0.1265 µM) | relative viability (TPCA-1 + Vorinostat; first compound 0.4 µM) | relative viability (TPCA-1 + Vorinostat; first compound 1.265 µM) | relative viability (TPCA-1 + Vorinostat; first compound 4 µM) | relative viability (TPCA-1 + Decitabine; first compound 0.04 µM) | relative viability (TPCA-1 + Decitabine; first compound 0.1265 µM) | relative viability (TPCA-1 + Decitabine; first compound 0.4 µM) | relative viability (TPCA-1 + Decitabine; first compound 1.265 µM) | relative viability (TPCA-1 + Decitabine; first compound 4 µM) | relative viability (TPCA-1 + Crizotinib; first compound 0.04 µM) | relative viability (TPCA-1 + Crizotinib; first compound 0.1265 µM) | relative viability (TPCA-1 + Crizotinib; first compound 0.4 µM) | relative viability (TPCA-1 + Crizotinib; first compound 1.265 µM) | relative viability (TPCA-1 + Crizotinib; first compound 4 µM) | relative viability ([1]; first compound 0.005 µM) | relative viability ([1]; first compound 0.01581 µM) | relative viability ([1]; first compound 0.05 µM) | relative viability ([1]; first compound 0.1581 µM) | relative viability ([1]; first compound 0.5 µM)
NCI-H1915 | 0.541 | 0.5 | 0.537 | 0.392 | 0.386 | 0.266 | 0.253 | 0.258 | 0.255 | 0.251 | 0.906 | 0.884 | 0.915 | 0.857 | 0.72 | 0.512 | 0.489 | 0.427 | 0.325 | 0.162
NCI-H2009 | 0.746 | 0.785 | 0.693 | 0.757 | 0.675 | 0.412 | 0.392 | 0.377 | 0.423 | 0.392 | 1.06 | 1.05 | 1.03 | 1.05 | 0.891 | 0.782 | 0.759 | 0.665 | 0.689 | 0.501
ChaGo-K-1 | 0.781 | 0.694 | 0.796 | 0.665 | 0.295 | 0.49 | 0.453 | 0.565 | 0.499 | 0.321 | 1.2 | 1.04 | 1.17 | 0.836 | 0.608 | 0.767 | 0.807 | 0.614 | 0.465 | 0.356
COR-L 105 | 1.02 | 0.709 | 0.766 | 0.628 | 0.391 | 0.711 | 0.622 | 0.735 | 0.612 | 0.537 | 0.812 | 1.14 | 0.751 | 0.629 | 0.347 | 0.949 | 0.676 | 0.678 | 0.445 | 0.402
